Literature values, collected in patent US9066953B2, “Methods for increasing endurance and fat metabolism in humans” (Quality IP Holdings, LLC, priority 2012, dated 2015).

Experiments:
hGH = details: for effect on hGH: other amino acids, literature
GH = details: subcutaneous injection of 0.06 IU, GH deficient subjects

| Compound | effect on hGH (hGH) | also measured |
| --- | --- | --- |
| N=C(N)NCCC[C@H](N)C(=O)O [arginine] |  | elevation of serum hGH levels (hGH; 30 g intravenous, in males): 8.6 fold; increase of hGH levels (hGH; intravenous infusion of 183 mg/kg body weight in females): > 20 fold |
| N[C@@H](Cc1c[nH]cn1)C(=O)O [histidine] | marked increases in hGH |  |
| NCCCC[C@H](N)C(=O)O [lysine] | marked increases in hGH |  |
| CSCC[C@H](N)C(=O)O [methionine] | marked increases in hGH |  |
| NCCC[C@H](N)C(=O)O [ornithine] | marked increases in hGH |  |
| N[C@@H](Cc1ccccc1)C(=O)O [phenylalanine] | marked increases in hGH |  |
| HGH: injected human growth hormone used in the treatment of GH deficient subjects |  | mean levels of GH reached (GH): 0.4 ng/mL |
